Assays:
Liver microsome [1] = assay: Drug metabolism in human liver microsomes assessed as intrinsic clearance per mg protein by multiple depletion curves method
Liver microsome [2] = assay: Drug metabolism in human liver microsomes assessed as intrinsic clearance per mg protein by optimal design approach
[3] = Drug metabolism in human liver microsomes by optimal design approach
[4] = Drug metabolism in human liver microsomes by multiple depletion curves method
Cytochrome P450 2D6 [5] = target: T1, Cytochrome P450 2D6 (Homo sapiens, UniProt P10635); assay: Drug metabolism in assessed as human CYP2D6-mediated intrinsic clearance per mg protein; type: ADME; settings: recombinant enzyme
CYP2D6 = CYP2D6 (Homo sapiens, UniProt P10635); assay: Drug metabolism in assessed as human CYP2D6-mediated metabolism; type: ADME; settings: recombinant enzyme
Cytochrome P450 2D6 [6] = target: T1, Cytochrome P450 2D6; assay: Drug metabolism in assessed as human CYP2D6-mediated maximum rate of reaction per mg protein; type: ADME; settings: recombinant enzyme
Cytochrome P450 2C9 [7] = target: T2, Cytochrome P450 2C9 (Homo sapiens, UniProt P11712); assay: Drug metabolism in assessed as human CYP2C9-mediated maximum rate of reaction per mg protein; type: ADME; settings: recombinant enzyme
T2 sequence (P11712 whole entry): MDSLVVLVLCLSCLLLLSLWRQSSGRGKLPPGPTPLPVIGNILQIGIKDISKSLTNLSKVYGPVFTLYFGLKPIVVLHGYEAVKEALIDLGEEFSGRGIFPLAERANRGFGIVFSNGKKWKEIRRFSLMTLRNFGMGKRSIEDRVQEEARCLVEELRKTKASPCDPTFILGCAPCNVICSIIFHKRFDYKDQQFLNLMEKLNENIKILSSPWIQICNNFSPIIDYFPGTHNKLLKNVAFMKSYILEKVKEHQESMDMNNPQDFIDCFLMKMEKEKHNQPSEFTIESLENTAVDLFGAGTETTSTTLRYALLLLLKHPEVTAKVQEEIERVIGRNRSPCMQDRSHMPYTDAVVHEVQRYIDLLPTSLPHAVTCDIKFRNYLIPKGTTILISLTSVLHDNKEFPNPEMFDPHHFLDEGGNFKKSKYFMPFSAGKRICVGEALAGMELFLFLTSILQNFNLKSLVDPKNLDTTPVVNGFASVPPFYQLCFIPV

CYP2C9 = CYP2C9 (Homo sapiens, UniProt P11712); assay: Drug metabolism in assessed as human CYP2C9-mediated metabolism; type: ADME; settings: recombinant enzyme
Sequence of CYP2C9 (P11712 whole entry): as above

Cytochrome P450 2C9 [8] = target: T2, Cytochrome P450 2C9; assay: Drug metabolism in assessed as human CYP2C9-mediated intrinsic clearance per mg protein; type: ADME; settings: recombinant enzyme
[9] = Drug metabolism in assessed as human CYP3A-mediated intrinsic clearance per mg protein; type: ADME; settings: recombinant enzyme
CYP3A = assay: Drug metabolism in assessed as human CYP3A-mediated metabolism; type: ADME; settings: recombinant enzyme
[10] = Drug metabolism in assessed as human CYP3A-mediated maximum rate of reaction per mg protein; type: ADME; settings: recombinant enzyme
Cytochrome P450 1A2 [11] = target: T3, Cytochrome P450 1A2 (Homo sapiens, UniProt P05177); assay: Drug metabolism in assessed as human CYP1A2-mediated intrinsic clearance per mg protein; settings: recombinant enzyme
T3 sequence (P05177 whole entry): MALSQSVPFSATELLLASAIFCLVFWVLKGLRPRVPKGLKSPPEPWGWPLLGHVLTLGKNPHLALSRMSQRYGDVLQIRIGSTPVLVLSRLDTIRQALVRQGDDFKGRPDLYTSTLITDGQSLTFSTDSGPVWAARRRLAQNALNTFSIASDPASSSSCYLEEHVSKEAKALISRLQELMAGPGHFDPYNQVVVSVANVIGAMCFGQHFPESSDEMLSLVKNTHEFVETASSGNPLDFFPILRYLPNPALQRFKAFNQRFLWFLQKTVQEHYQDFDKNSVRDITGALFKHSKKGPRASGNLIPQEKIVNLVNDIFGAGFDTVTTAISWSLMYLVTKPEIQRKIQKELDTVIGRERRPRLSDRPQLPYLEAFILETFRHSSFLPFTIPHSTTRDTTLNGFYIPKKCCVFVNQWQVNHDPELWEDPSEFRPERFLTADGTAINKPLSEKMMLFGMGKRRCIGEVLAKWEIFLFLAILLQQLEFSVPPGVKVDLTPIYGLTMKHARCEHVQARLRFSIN

Cytochrome P450 1A2 [12] = target: T3, Cytochrome P450 1A2; assay: Drug metabolism in assessed as human CYP1A2-mediated maximum rate of reaction per mg protein; type: ADME; settings: recombinant enzyme
not read [13] = substrate: CN(C)CCCN1c2ccccc2CCc2ccccc21; assay: not read
not read [14] = substrate: CCc1cccc2cc(C(O)CNC(C)(C)C)oc12; assay: not read

Molecule: CCN(CC)Cc1cc(Nc2ccnc3cc(Cl)ccc23)ccc1O [AMODIAQUINE]
- CLH (Liver microsome [1]): 829 µL/min/g
- CLH (Liver microsome [2]): 224 µL/min/g
- Km ([3]; microsomes): 5.17 µM
- Km ([4]; microsomes): 3.33 µM

Molecule: CCc1cccc2cc(C(O)CNC(C)(C)C)oc12 (stereo not drawn) [BUFURALOL]
- CLH (Liver microsome [1]): 31 µL/min/g
- clearance (Cytochrome P450 2D6 [5]): 3 µL/min/mg
- CLH (Liver microsome [2]): 32.3 µL/min/g
- Km ([3]; microsomes): 12.8 µM
- Km ([4]; microsomes): 11.7 µM

Molecule: COc1ccc2c(c1)[C@]13CCCC[C@@H]1[C@H](C2)N(C)CC3 [DEXTROMETHORPHAN]
- Km (CYP2D6): 1.4 µM
- CLH (Liver microsome [1]): 84.1 µL/min/g
- CLH (Liver microsome [2]): 54.2 µL/min/g
- Km ([3]; liver microsomes): 6.32 µM
- Km ([4]; liver microsomes): 7.16 µM
- Vmax (Cytochrome P450 2D6 [6]): 140 pmol/min

Molecule: O=C(O)Cc1ccccc1Nc1c(Cl)cccc1Cl [DICLOFENAC]
- Vmax (Cytochrome P450 2C9 [7]): 710 pmol/min
- Km ([3]; microsomes): 8.55 µM
- Km ([4]; microsomes): 11.6 µM
- Km (CYP2C9): 1.7 µM
- clearance (Cytochrome P450 2C9 [8]): 130 µL/min/mg

Molecule: COc1ccc([C@@H]2Sc3ccccc3N(CCN(C)C)C(=O)[C@@H]2OC(C)=O)cc1 [DILTIAZEM]
- CLH (Liver microsome [1]): 47.6 µL/min/g
- CLH (Liver microsome [2]): 75.4 µL/min/g
- Km ([3]; liver microsomes): 9.8 µM
- Km ([4]; liver microsomes): 10 µM

Molecule: Cc1ncc2n1-c1ccc(Cl)cc1C(c1ccccc1F)=NC2 [MIDAZOLAM]
- CLH (Liver microsome [1]): 717 µL/min/g
- CLH (Liver microsome [2]): 220 µL/min/g
- CL [9]: 159 µL/min/g
- Km ([3]; microsomes): 3.04 µM
- Km (CYP3A): 1.2 µM
- Km ([4]; microsomes): 1.26 µM
- Vmax [10]: 636 pmol/min

Molecule: CCOc1ccc(NC(C)=O)cc1 [PHENACETIN]
- CLH (Liver microsome [1]): 39.5 µL/min/g
- CL (Cytochrome P450 1A2 [11]): 14.6 µL/min/g
- CLH (Liver microsome [2]): 50.4 µL/min/g
- Km ([3]; liver microsomes): 22.6 µM
- Km ([4]; liver microsomes): 22.6 µM
- Vmax (Cytochrome P450 1A2 [12]): 322 pmol/min

B1: Cytochrome P450 2C19 (Homo sapiens) (protein)
chain: MDPFVVLVLCLSCLLLLSIWRQSSGRGKLPPGPTPLPVIGNILQIDIKDVSKSLTNLSKIYGPVFTLYFGLERMVVLHGYEVVKEALIDLGEEFSGRGHFPLAERANRGFGIVFSNGKRWKEIRRFSLMTLRNFGMGKRSIEDRVQEEARCLVEELRKTKASPCDPTFILGCAPCNVICSIIFQKRFDYKDQQFLNLMEKLNENIRIVSTPWIQICNNFPTIIDYFPGTHNKLLKNLAFMESDILEKVKEHQESMDINNPRDFIDCFLIKMEKEKQNQQSEFTIENLVITAADLLGAGTETTSTTLRYALLLLLKHPEVTAKVQEEIERVIGRNRSPCMQDRGHMPYTDAVVHEVQRYIDLIPTSLPHAVTCDVKFRNYLIPKGTTILTSLTSVLHDNKEFPNPEMFDPRHFLDEGGNFKKSNYFMPFSAGKRICVGEGLARMELFLFLTFILQNFNLKSLIDPKDLDTTPVVNGFASVPPFYQLCFIPV
- Km (not read [13]): 5 µM
- Vmax (not read [13]): 0.000117 µmol/min

B2: Cytochrome P450 1A2 (Homo sapiens) (protein)
chain: T3 sequence (P05177 whole entry)
- Km (not read [13]): 5 µM
- Vmax (not read [13]): 0.000117 µmol/min

B3: Cytochrome P450 2D6 (Homo sapiens) (protein)
chain: MGLEALVPLAVIVAIFLLLVDLMHRRQRWAARYPPGPLPLPGLGNLLHVDFQNTPYCFDQLRRRFGDVFSLQLAWTPVVVLNGLAAVREALVTHGEDTADRPPVPITQILGFGPRSQGVFLARYGPAWREQRRFSVSTLRNLGLGKKSLEQWVTEEAACLCAAFANHSGRPFRPNGLLDKAVSNVIASLTCGRRFEYDDPRFLRLLDLAQEGLKEESGFLREVLNAVPVLLHIPALAGKVLRFQKAFLTQLDELLTEHRMTWDPAQPPRDLTEAFLAEMEKAKGNPESSFNDENLRIVVADLFSAGMVTTSTTLAWGLLLMILHPDVQRRVQQEIDDVIGQVRRPEMGDQAHMPYTTAVIHEVQRFGDIVPLGVTHMTSRDIEVQGFRIPKGTTLITNLSSVLKDEAVWEKPFRFHPEHFLDAQGHFVKPEAFLPFSAGRRACLGEPLARMELFLFFTSLLQHFSFSVPTGQPRPSHHGVFAFLVSPSPYELCAVPR
- Km (not read [14]): 8.2 µM
- Vmax (not read [14]): 7e-05 µmol/min

— ChEMBL document CHEMBL3526124, “Optimized experimental design for the estimation of enzyme kinetic parameters: an experimental evaluation” (Drug Metab Dispos, 2012)
